{"source": "patent US9504729B2", "about": "“Antiangiogenic small molecules and methods of use” (The United States of America, as represented by the …, priority 2009, dated 2016)", "tested_on": "angiogenesis genes in dermal microvascular endothelial cells", "assay": "Real time RT-PCR of angiogenesis gene expression during endothelial tube formation", "format": "cell-based", "conditions": "1 μM SM, 24 hours", "data": [{"smiles": "CC1CCN(CC[S-])CC1.O.O.[Cl][Pt+]", "note": "[compound 292596]", "values": [{"measurement": "Log2 fold-change of gene expression: Kifc1", "value": 1.6}, {"measurement": "Log2 fold-change of gene expression: LAMAS5", "value": "−0.3"}, {"measurement": "Log2 fold-change of gene expression: LECT1", "value": 1.4}, {"measurement": "Log2 fold-change of gene expression: LEP", "value": 2.6}, {"measurement": "Log2 fold-change of gene expression: Lasts2", "value": 0.4}, {"measurement": "Log2 fold-change of gene expression: Lrrk1", "value": "−1.5"}, {"measurement": "Log2 fold-change of gene expression: MDK", "value": "−1.5"}, {"measurement": "Log2 fold-change of gene expression: MMP2", "value": 1.1}, {"measurement": "Log2 fold-change of gene expression: MMP9", "value": 1.8}, {"measurement": "Log2 fold-change of gene expression: MMP11", "value": "−0.3"}, {"measurement": "Log2 fold-change of gene expression: MRC2", "value": "−0.5"}, {"measurement": "Log2 fold-change of gene expression: Mmm2", "value": "−2.4"}, {"measurement": "Log2 fold-change of gene expression: Myo1b", "value": "−2.0"}, {"measurement": "Log2 fold-change of gene expression: NID1", "value": "−3.6"}, {"measurement": "Log2 fold-change of gene expression: NM023516", "value": 0.2}, {"measurement": "Log2 fold-change of gene expression: NRP1", "value": "−2.3"}, {"measurement": "Log2 fold-change of gene expression: NRP2", "value": "−3.2"}, {"measurement": "Log2 fold-change of gene expression: Notch4", "value": "−0.6"}, {"measurement": "Log2 fold-change of gene expression: Npr3", "value": 0.7}, {"measurement": "Log2 fold-change of gene expression: PALD", "value": "−1.9"}, {"measurement": "Log2 fold-change of gene expression: PDCD2", "value": "−1.1"}, {"measurement": "Log2 fold-change of gene expression: PDGFA", "value": 4.0}, {"measurement": "Log2 fold-change of gene expression: PECAM1", "value": "−1.8"}, {"measurement": "Log2 fold-change of gene expression: PGF", "value": "−1.7"}, {"measurement": "Log2 fold-change of gene expression: PLAU", "value": "−0.2"}, {"measurement": "Log2 fold-change of gene expression: PLG", "value": "−0.4"}, {"measurement": "Log2 fold-change of gene expression: PNMT", "value": "−0.7"}, {"measurement": "Log2 fold-change of gene expression: PROK2", "value": 2.0}, {"measurement": "Log2 fold-change of gene expression: PTGS1", "value": 1.1}, {"measurement": "Log2 fold-change of gene expression: PTPRCAP", "value": "−0.5"}, {"measurement": "Log2 fold-change of gene expression: Pltp", "value": 0.5}, {"measurement": "Log2 fold-change of gene expression: Ptprb", "value": "−1.9"}, {"measurement": "Log2 fold-change of gene expression: Ptprm", "value": "−0.8"}, {"measurement": "Log2 fold-change of gene expression: RAMP2", "value": "−5.0"}, {"measurement": "Log2 fold-change of gene expression: RASD2", "value": "−0.5"}, {"measurement": "Log2 fold-change of gene expression: Rasip1", "value": "−0.5"}, {"measurement": "Log2 fold-change of gene expression: S1PR1", "value": 0.2}, {"measurement": "Log2 fold-change of gene expression: SERPINF1", "value": 0.7}, {"measurement": "Log2 fold-change of gene expression: SPHK1", "value": 1.8}, {"measurement": "Log2 fold-change of gene expression: STAB1", "value": "−0.5"}, {"measurement": "Log2 fold-change of gene expression: Sdc4", "value": 1.4}, {"measurement": "Log2 fold-change of gene expression: Sdpr", "value": 0.8}, {"measurement": "Log2 fold-change of gene expression: Slc43a3", "value": 0.6}, {"measurement": "Log2 fold-change of gene expression: Slco2a1", "value": "−1.0"}, {"measurement": "Log2 fold-change of gene expression: TEK", "value": 1.3}, {"measurement": "Log2 fold-change of gene expression: TGFA", "value": 8.9}, {"measurement": "Log2 fold-change of gene expression: TGFB1", "value": "−0.8"}, {"measurement": "Log2 fold-change of gene expression: TGFB2", "value": 2.1}, {"measurement": "Log2 fold-change of gene expression: TGFBR1", "value": 1.4}, {"measurement": "Log2 fold-change of gene expression: THBS1", "value": "−0.1"}, {"measurement": "Log2 fold-change of gene expression: THBS2", "value": 1.1}, {"measurement": "Log2 fold-change of gene expression: THY1", "value": "−5.8"}, {"measurement": "Log2 fold-change of gene expression: TIMP1", "value": 1.4}, {"measurement": "Log2 fold-change of gene expression: TIMP2", "value": 0.4}, {"measurement": "Log2 fold-change of gene expression: TIMP3", "value": "−1.2"}, {"measurement": "Log2 fold-change of gene expression: TNF", "value": 6.1}, {"measurement": "Log2 fold-change of gene expression: TNS1", "value": "−0.5"}, {"measurement": "Log2 fold-change of gene expression: TNS3", "value": 1.3}, {"measurement": "Log2 fold-change of gene expression: TRA2B", "value": 0.9}, {"measurement": "Log2 fold-change of gene expression: TYMP", "value": "−5.5"}, {"measurement": "Log2 fold-change of gene expression: VEGFA", "value": 0.4}, {"measurement": "Log2 fold-change of gene expression: VEGFC", "value": 1.6}, {"measurement": "Log2 fold-change of gene expression: VGLL4", "value": "−2.8"}, {"measurement": "Log2 fold-change of gene expression: Vwf", "value": "−2.6"}, {"measurement": "Log2 fold-change of gene expression: copa", "value": "−0.5"}, {"measurement": "Log2 fold-change of gene expression: itbp4", "value": "−1.5"}, {"measurement": "Log2 fold-change of gene expression: ralb", "value": "−0.5"}, {"measurement": "Log2 fold-change of gene expression: stard9", "value": "−0.9"}, {"measurement": "Log2 fold-change of gene expression: B2M", "setting": "1st listing (r49)", "value": "−2.0"}, {"measurement": "Log2 fold-change of gene expression: HPRT1", "setting": "1st listing (r50)", "value": "−0.5"}, {"measurement": "Log2 fold-change of gene expression: RPL13A", "setting": "1st listing (r51)", "value": 1.9}, {"measurement": "Log2 fold-change of gene expression: GADPH", "setting": "1st listing (r52)", "value": 0.3}, {"measurement": "Log2 fold-change of gene expression: ACTB", "setting": "1st listing (r53)", "value": 0.0}, {"measurement": "Log2 fold-change of gene expression: PLXDC1", "setting": "1st listing (r74)", "value": 0.3}, {"measurement": "Log2 fold-change of gene expression: TNFAIP2", "setting": "1st listing (r91)", "value": "−0.2"}, {"measurement": "Log2 fold-change of gene expression: Robo4", "setting": "1st listing (r95)", "value": "−1.2"}, {"measurement": "Log2 fold-change of gene expression: 151516", "setting": "1st listing (r134)", "value": 0.3}, {"measurement": "Log2 fold-change of gene expression: TNFAIP2", "setting": "2nd listing (r92)", "value": "−0.1"}, {"measurement": "Log2 fold-change of gene expression: B2M", "setting": "2nd listing (r97)", "value": "−1.6"}, {"measurement": "Log2 fold-change of gene expression: HPRT1", "setting": "2nd listing (r98)", "value": 0.1}, {"measurement": "Log2 fold-change of gene expression: RPL13A", "setting": "2nd listing (r99)", "value": 1.5}, {"measurement": "Log2 fold-change of gene expression: GADPH", "setting": "2nd listing (r100)", "value": 0.8}, {"measurement": "Log2 fold-change of gene expression: ACTB", "setting": "2nd listing (r101)", "value": "−0.4"}, {"measurement": "Log2 fold-change of gene expression: PLXDC1", "setting": "2nd listing (r104)", "value": 0.2}, {"measurement": "Log2 fold-change of gene expression: 151516", "setting": "2nd listing (r139)", "value": 0.3}, {"measurement": "Log2 fold-change of gene expression: Robo4", "setting": "2nd listing (r188)", "value": 0.2}, {"measurement": "Log2 fold-change of gene expression: B2M", "setting": "3rd listing (r145)", "value": "−0.4"}, {"measurement": "Log2 fold-change of gene expression: HPRT1", "setting": "3rd listing (r146)", "value": 0.4}, {"measurement": "Log2 fold-change of gene expression: RPL13A", "setting": "3rd listing (r147)", "value": 1.1}, {"measurement": "Log2 fold-change of gene expression: GADPH", "setting": "3rd listing (r148)", "value": "−0.3"}, {"measurement": "Log2 fold-change of gene expression: ACTB", "setting": "3rd listing (r149)", "value": "−0.9"}, {"measurement": "Log2 fold-change of gene expression: B2M", "setting": "4th listing (r193)", "value": "−0.8"}, {"measurement": "Log2 fold-change of gene expression: HPRT1", "setting": "4th listing (r194)", "value": 0.1}, {"measurement": "Log2 fold-change of gene expression: RPL13A", "setting": "4th listing (r195)", "value": 0.6}, {"measurement": "Log2 fold-change of gene expression: GADPH", "setting": "4th listing (r196)", "value": 0.4}, {"measurement": "Log2 fold-change of gene expression: ACTB", "setting": "4th listing (r197)", "value": "−0.1"}]}]}
